# Patent US9765115B2, “Inhibitors of metastasis, methods of generating such inhibitors and their therapeutic applications” (Board of Supervisors of Louisiana State University acting …, priority 2011, dated 2017)
# Experiments:
# Format in all cases: cell-based
# PC-3V cells [1] = assay: Paracellular permeability (PCP), TRITC-dextran diffusion; settings: 50 nM CT
# Protocol: (§1) For PCP measurements, cells were grown to confluence on Transwell filters. Tetra methyl rhodamine-dextran (1 mg/ml, ˜4 kDa, Sigma) was added to the upper chamber. Fluorescence of the lower chamber medium was measured in Modulus Microplate Reader (Turner Biosystems) at various time intervals.
# (§2) TJs form a barrier that regulates the movement of ions, solutes and growth factors between cells. To detect whether CT affects the barrier, the diffusion of fluorophore-conjugated dextran was measured across polarized PC cell line monolayers, a procedure called paracellular permeability (PCP). FIG. 2B depicts CTR-C PDZ-binding motif mutation and tight junction (TJ) disruption as measured using PCP. Polarized PC-3V, PC-3-CTRwt and PC-3CTRΔESS cells were treated with or without 50 nM CT, and PCP determined by diffusion of ˜4 kDa TRITC-conjugated dextran from the upper to the lower chamber in one hour. The results are expressed as μg/ml/hour of TRITC-Dextran diffused ±SEM (n=6; *p<0.05 (−CT v +CT, One way ANOVA and Newman-Keul's test)). […] In contrast, CTRΔESS expression had little effect on PCP in the presence or absence of CT.
# PC-3CTRΔESS cells [2] = assay: as above
# Protocol: as §1, §2
# [3] = tested on: LNCaP, PC-3M and DU-145 cell lines; assay: as above; settings: 50 nM CT
# Protocol: as §1
# Whether CT produces similar effects in LNCaP, PC-3M and DU-145 cell lines, which endogenously express CTR, was examined as shown in FIG. 1A. FIGS. 9A-9B depict the effect of CT on tight junction (TJ) disruption as measured using TER and PCP in the three prostate cancer cell lines—LNCaP, PC-3M, and DU-145. Cells were serum-starved for 4 hours, then treated with and without 50 nM CT, before measuring TER as described above. In FIG. 9B, cells were treated with and without 50 nM CT, and PCP determined by diffusion of ˜4 kDa TRITC-conjugated dextran from the upper to the lower chamber in one hour. The results are expressed as μg/ml/hour of TRITC-Dextran diffused ±SEM (n=6; *p<0.05 (−CT v +CT, One way ANOVA and Newman-Keul's test)). FIG. 9C depicts effects of CT on cell invasion in the same three cell lines—PC-3M, LNCaP, and DU145. Cells were added to upper insert of invasion chambers with or without 50 nM CT, and cells that passed through the Matrigel™ barrier were counted after 48 h. The results are expressed as mean number of invaded cells per 400× field ±SEM (n=6; *p<0.05).
# [4] = tested on: PC-3M cells expressing ZO-1-wt or its ΔPDZ mutants; assay: Transepithelial electric resistance (TER); settings: CT 50 nM
# Protocol: (§3) Cells were plated on Transwell filters (0.4 μm pore size) and grown to confluency in complete medium (RPMI1640 containing 10% fetal bovine serum, 20 mM HEPES and antibiotics). TER of the cultures (in duplicate wells) was measured at several time intervals with EVOM volt-ohm meter as previously described (Shah et al, 2009). The readings were corrected for blank (TER values from the filter in bathing medium). The integrity and cell density of monolayers were carefully monitored.
# Since ZO-1 contains three PDZ domains, which of these interacts with CTR-C PDZ-binding motif was analyzed. PC-3M cells was used for this study because they are PC-3-derived, but co-express both CT and CTR, and are suitable to examine modulation of CTR action in response to mutations in ZO-1 (Chien et al., 2001). To knock down endogenous ZO-1 expression, PC-3M cells were stably transfected with constitutive ZO-1 shRNA expression vector (pSuper.neo system; shRNA duplex-5′-GACGAGAUAAUCCUCAUUUtt-3′ (SEQ ID NO:8) corresponding to 596-614 bp of ZO-1 mRNA). Since the constitutive presence of ZO-1 siRNA in PC-3M cells could interfere with the re-expression of ZO-1 wt or its ΔPDZ mutants, ZO-1 (wt or ΔPDZ mutants) cDNA expression vectors refractory to ZO-1 RNAi were generated by introducing a silent mutation in RNAi target sequence in the ZO-1 transgene. […]
# PC-3V cells [5] = assay: Transepithelial electric resistance (TER); settings: 50 nM CT
# Protocol: as §3
# (§4) To examine the effect of calcitonin (CT) on tight junctions (TJs), the transepithelial electric resistance (TER) of polarized PC-3 cells expressing either the vector (PC-3V), CTRwt or CTRΔESS was monitored for 8 hours after CT stimulation (FIG. 2A). Polarized PC-3V, PC-3 CTRwt and PC-3 CTR-ΔESS cells were serum-starved for 4 hours, then treated with or without 50 nM CT. TER was measured with EVOM volt-ohm meter, and results expressed as Ωcm^2±SEM (n=6). […] Since PC-3 cells secrete CT, the expression of CTRwt may have activated CT-CTR axis causing almost 40% reduction of TER in PC-3CTRwt cells.
# PC-3CTRΔESS cells [6] = assay: Transepithelial electric resistance (TER)
# Protocol: as §3, §4
substance,measurement,setting,value
calcitonin [CT],PCP,PC-3V cells [1],did not alter it
same,PCP at multiple CT concentrations,PC-3CTRΔESS cells [2]; all tested concentrations,did not alter PCP
same,PCP,PC-3CTRΔESS cells [2]; presence or absence of 50 nM CT,little effect
same,PCP,[3],increased PCP
same,TER,[4]; cells expressing ZO-1-ΔPDZ3,no decrease in TER
same,TER,"[4]; cells re-expressing ZO-1-wt, ΔPDZ1 or ΔPDZ2",remarkable decline in TER
same,TER,PC-3V cells [5],did not alter it
same,TER,PC-3CTRΔESS cells [6]; 50 nM CT,did not affect TER
same,TER at multiple CT concentrations,PC-3CTRΔESS cells [6]; all CT concentrations,did not show any changes
